# Data as given in patent US12479856B2, “Pharmaceutical compounds for the treatment of complement mediated disorders” (Achillion Pharmaceuticals, Inc., priority 2019, dated 2025).
# Target: T1, Human complement C1s enzyme (Homo sapiens, UniProt P09871)
# T1 construct: purified from human serum, Complement Technology, Inc; purchased Complement Technology, Inc; host or cells: human serum (plasma-derived natural protein)
# T1 sequence (P09871 438-688 limits assumed): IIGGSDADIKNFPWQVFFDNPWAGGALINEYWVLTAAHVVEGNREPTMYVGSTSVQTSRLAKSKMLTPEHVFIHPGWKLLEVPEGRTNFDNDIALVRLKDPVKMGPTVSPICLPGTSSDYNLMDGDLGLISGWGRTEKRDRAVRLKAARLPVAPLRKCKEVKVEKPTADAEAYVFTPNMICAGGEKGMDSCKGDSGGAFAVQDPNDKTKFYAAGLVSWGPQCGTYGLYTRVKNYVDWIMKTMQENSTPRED
# T1 sequence (P09871 16-437 partner limits assumed): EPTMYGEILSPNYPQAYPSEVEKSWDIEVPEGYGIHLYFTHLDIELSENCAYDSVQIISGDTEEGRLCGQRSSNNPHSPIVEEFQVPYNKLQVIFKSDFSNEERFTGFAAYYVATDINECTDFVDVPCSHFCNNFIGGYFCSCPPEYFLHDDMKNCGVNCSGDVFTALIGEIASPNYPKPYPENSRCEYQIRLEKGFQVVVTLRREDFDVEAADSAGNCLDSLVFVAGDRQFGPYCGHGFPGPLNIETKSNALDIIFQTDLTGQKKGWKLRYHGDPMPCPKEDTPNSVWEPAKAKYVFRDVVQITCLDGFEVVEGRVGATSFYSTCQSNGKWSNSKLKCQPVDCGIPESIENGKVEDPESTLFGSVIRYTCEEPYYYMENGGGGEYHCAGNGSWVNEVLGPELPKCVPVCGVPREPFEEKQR
# Experiment: Human C1s Enzyme Assay
# Format: biochemical
# Conditions: Table 1; C1s purified from human serum, 1.16 nM; substrate Z-L-Lys-SBzl; read-out: C1s Protease Activity
# Description: Example 4. Human C1s Enzyme Assay
# Human complement C1s enzyme (purified from human serum, Complement Technology, Inc.) at 1.16 nM final concentration is incubated with test compound at various concentrations for 5 min at room temperature in 50 mM Tris, 1 M NaCl, pH 7.5. A synthetic substrate Z-L-Lys-SBzl and DTNB (Ellman's reagent) are added to final concentrations of 100 μM each. Absorbance at 405 nm (A405) is recorded at 30 second intervals for 30 min using a microplate spectrophotometer. IC50 values are calculated by nonlinear regression of complement C1s reaction rates as a function of test compound concentration.
row,IC50 [nM],SMILES
1,> 1000,"Nc1ccc(CCNC(=O)[C@@H]2CC3(CN2C(=O)CNC(=O)c2ccc(Oc4ccccc4)cc2)OCCO3)cc1 [Compound 23, (8S)—N-[2-(4-Aminophenyl)ethyl]-7-{2-[(4-phenoxyphenyl)formamido]acetyl}-1,4-dioxa-7-azaspiro[4.4]nonane-8-carboxamide]"
2,> 1000,"N=C(N)CCCCNC(=O)[C@@H]1CC2(CN1C(=O)CNC(=O)c1ccc(Oc3ccccc3)cc1)OCCO2 [Compound 17, (8S)—N-(4-Carbamimidoylbutyl)-7-{2-[(4-phenoxyphenyl)formamido]acetyl}-1,4-dioxa-7-azaspiro[4.4]nonane-8-carboxamide]"
3,< 100,"N=C(N)c1ccc(CNC(=O)[C@@H]2CC3(CN2C(=O)CNC(=O)c2ccc(Oc4ccccc4)cc2)OCCO3)cc1 [Compound 19, (8S)—N-[(4-Carbamimidoylphenyl)methyl]-7-{2-[(4-phenoxyphenyl)formamido]acetyl}-1,4-dioxa-7-azaspiro[4.4]nonane-8-carboxamide]"
4,> 1000,"N=C(N)CCCCNC(=O)[C@@H]1CCCN1C(=O)CNC(=O)c1ccc(Oc2ccccc2)cc1 [Compound 29, (S)-N-(5-amino-5-iminopentyl)-1-((4-phenoxybenzoyl)glycyl)pyrrolidine-2-carboxamide]"
5,> 1000,"Nc1cc(CCNC(=O)[C@@H]2CC3(CN2C(=O)CNC(=O)c2ccc(Oc4ccccc4)cc2)OCCO3)ccn1 [Compound 24, (8S)—N-[2-(2-Aminopyridin-4-yl)ethyl]-7-{2-[(4-phenoxyphenyl)formamido]acetyl}-1,4-dioxa-7-azaspiro[4.4]nonane-8-carboxamide]"
6,> 1000,"NCCCCCCNC(=O)[C@@H]1CC2(CN1C(=O)CNC(=O)c1ccc(Oc3ccccc3)cc1)OCCO2 [Compound 27, (8S)—N-(6-Aminohexyl)-7-{2-[(4-phenoxyphenyl)formamido]acetyl}-1,4-dioxa-7-azaspiro[4.4]nonane-8-carboxamide]"

# Same assay, conditions: Table 2; C1s purified from human serum, 1.16 nM; substrate Z-L-Lys-SBzl; read-out: C1s Protease Activity
row,IC50 [nM],SMILES
1,< 100,"CCCCCCc1ccc(C(=O)NCC(=O)N2CCC[C@H]2C(=O)NCc2cc(C(=N)N)cs2)cc1 [Compound 75, (S)-N-((4-carbamimidoylthiophen-2-yl)methyl)-1-((4-hexylbenzoyl)glycyl)pyrrolidine-2-carboxamide]"
2,< 100,"CCCCCc1cc(C(=O)NCC(=O)N2CCC[C@H]2C(=O)NCc2cc(C(=N)N)cs2)ccc1Oc1ccccc1 [Compound 42, (S)-N-((4-carbamimidoylthiophen-2-yl)methyl)-1-((3-pentyl-4-phenoxybenzoyl)glycyl)pyrrolidine-2-carboxamide]"
3,< 100,"Cc1cc(C(=O)NCC(=O)N2[C@H]3C[C@@]3(C)C[C@H]2C(=O)NCc2cc(C(=N)N)cs2)ccc1Oc1ccccc1 [Compound 48, (1S,3S,5S)-N-((4-carbamimidoylthiophen-2-yl)methyl)-5-methyl-2-((3-methyl-4-phenoxybenzoyl)glycyl)-2-azabicyclo[3.1.0]hexane-3-carboxamide]"
4,< 100,"Cc1cc(C(=O)NCC(=O)N2CC3(C[C@H]2C(=O)NCc2nc(C(=N)N)co2)OCCO3)ccc1Oc1ccccc1 [Compound 51, (S)-N-((4-carbamimidoyloxazol-2-yl)methyl)-7-((3-methyl-4-phenoxybenzoyl)glycyl)-1,4-dioxa-7-azaspiro[4.4]nonane-8-carboxamide]"
5,100 to 1000,"CCCCCC(=O)NCC(=O)N1CCC[C@H]1C(=O)NCc1cc(C(=N)N)cs1 [Compound 82, (S)-N-((4-carbamimidoylthiophen-2-yl)methyl)-1-(hexanoylglycyl)pyrrolidine-2-carboxamide]"

# Same assay, conditions: Table 3; C1s purified from human serum, 1.16 nM; substrate Z-L-Lys-SBzl; read-out: C1s Protease Activity
row,IC50 [nM],SMILES
1,< 100,"N=C(N)c1csc(CNC(=O)[C@@H]2C[C@@H](C(F)(F)F)CN2C(=O)CNC(=O)c2ccc(Oc3ccccc3)cc2)c1 [Compound 98, (2S,4R)-N-((4-carbamimidoylthiophen-2-yl)methyl)-1-((4-phenoxybenzoyl)glycyl)-4-(trifluoromethyl)pyrrolidine-2-carboxamide]"
